Tests used:
[1] = pKa value of the compound; format: physicochemical
[2] = test system: Caco-2; test: compound was evaluated for their ability to cross a Caco-2-monolayer; format: functional, cell-based; details: Homo sapiens
[3] = biological target: Prothrombin (Homo sapiens, UniProt P00734); test: Inhibitory activity against thrombin was measured by its ability to cleave the synthetic substrate S-2238(D-Phe-Pip-Arg-pNA); details: read-out: I50

## COc1ccc2ccc(S(=O)(=O)N[C@@H](CCCNc3ccccn3)C(=O)N3CCC(C)CC3)cc2c1
[1]
  pKa: 6.9
[2]
  Permeability coefficient: 3 ×10⁻⁶ cm/s
[3]
  IC50: 0.47 µM

## CC1CCN(C(=O)[C@H](CCCNc2cnccn2)NS(=O)(=O)c2ccc3ccccc3c2)CC1
[1]
  pKa: 3.1
[2]
  Permeability coefficient: 14.2 ×10⁻⁶ cm/s
[3]
  IC50: > 40 µM

## CC1CCN(C(=O)[C@H](CCCNc2cccnn2)NS(=O)(=O)c2ccc3ccccc3c2)CC1
[1]
  pKa: 5.2
[2]
  Permeability coefficient: 12.3 ×10⁻⁶ cm/s
[3]
  IC50: 24 µM

## CC1CCN(C(=O)[C@H](CCCNc2ccccn2)NS(=O)(=O)c2ccc3ccccc3c2)CC1
[1]
  pKa: 6.9
[3]
  IC50: 5.5 µM

## CC1CCN(C(=O)[C@H](CCCN=C(N)N)NS(=O)(=O)c2ccc3ccccc3c2)CC1
[1]
  pKa: 14
[2]
  Permeability coefficient: 0.4 ×10⁻⁶ cm/s
[3]
  IC50: 2.5 µM

## CC1CCN(C(=O)[C@H](CCCNc2ncccn2)NS(=O)(=O)c2ccc3ccccc3c2)CC1
[1]
  pKa: 3.5
[2]
  Permeability coefficient: 13.8 ×10⁻⁶ cm/s
[3]
  IC50: > 115 µM

## COc1ccc2ccc(S(=O)(=O)N[C@@H](CCCNc3cccnn3)C(=O)N3CCC(C)CC3)cc2c1
[1]
  pKa: 5.2
[2]
  Permeability coefficient: 12.1 ×10⁻⁶ cm/s
[3]
  IC50: 2.3 µM

## CC1CNc2c(cccc2S(=O)(=O)NC(CCCNC(=N)N)C(=O)N2CC[C@@H](C)C[C@@H]2C(=O)O)C1 (single isomer, unassigned) [ARGATROBAN]
[1]
  pKa: 14
[2]
  Permeability coefficient: 0.3 ×10⁻⁶ cm/s

— ChEMBL document CHEMBL1127967, “Argatroban analogs: Synthesis, thrombin inhibitory activity and cell permeability of aminoheterocyclic guanidine surrogates” (Bioorg Med Chem Lett, 1994)
